Laboratory results: ChEMBL document CHEMBL1909046, “DrugMatrix in vitro pharmacology data”

Tests used:
[1] = molecular target: Beta-2 adrenergic receptor (Homo sapiens, UniProt P07550); experiment: DRUGMATRIX: Adrenergic beta2 radioligand binding (ligand: [3H] CGP-12177); format: cell membranes, CHO, Membrane; settings: cho; Not Active = under 50% inhibition at 10 µM
[2] = DRUGMATRIX: GABAA, Flunitrazepam, Central radioligand binding (ligand: [3H] Flunitrazepam); format: cell membranes, Rattus norvegicus, Wistar, Brain, Membrane; settings: Not Active = under 50% inhibition at 10 µM
[3] = molecular target: C-C chemokine receptor type 5 (Homo sapiens, UniProt P51681); format: cell membranes, HEK293, Membrane; settings: hek293; also: in other assays of this panel Not Active means under 50% inhibition at 10 µM
[4] = molecular target: T1, Cysteinyl leukotriene receptor 1 (Homo sapiens, UniProt Q9Y271); format: cell membranes, CHO-K1, Membrane; settings: cho-k1; also: in other assays of this panel Not Active means under 50% inhibition at 10 µM
T1 sequence (Q9Y271 whole entry): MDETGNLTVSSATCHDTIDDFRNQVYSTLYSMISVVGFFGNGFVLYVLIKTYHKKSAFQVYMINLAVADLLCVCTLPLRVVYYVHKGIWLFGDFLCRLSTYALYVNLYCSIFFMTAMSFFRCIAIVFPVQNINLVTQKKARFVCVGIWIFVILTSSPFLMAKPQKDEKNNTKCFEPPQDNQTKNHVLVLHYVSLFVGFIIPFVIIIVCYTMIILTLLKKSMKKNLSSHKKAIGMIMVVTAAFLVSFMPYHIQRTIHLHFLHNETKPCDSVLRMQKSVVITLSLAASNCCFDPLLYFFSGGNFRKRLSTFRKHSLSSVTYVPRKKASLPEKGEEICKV

[5] = molecular target: C-C chemokine receptor type 2 (Homo sapiens, UniProt P41597); format: cell membranes, CHO-K1, Membrane; settings: cho-k1; also: in other assays of this panel Not Active means under 50% inhibition at 10 µM
Chain of C-C chemokine receptor type 2 (P41597 whole entry): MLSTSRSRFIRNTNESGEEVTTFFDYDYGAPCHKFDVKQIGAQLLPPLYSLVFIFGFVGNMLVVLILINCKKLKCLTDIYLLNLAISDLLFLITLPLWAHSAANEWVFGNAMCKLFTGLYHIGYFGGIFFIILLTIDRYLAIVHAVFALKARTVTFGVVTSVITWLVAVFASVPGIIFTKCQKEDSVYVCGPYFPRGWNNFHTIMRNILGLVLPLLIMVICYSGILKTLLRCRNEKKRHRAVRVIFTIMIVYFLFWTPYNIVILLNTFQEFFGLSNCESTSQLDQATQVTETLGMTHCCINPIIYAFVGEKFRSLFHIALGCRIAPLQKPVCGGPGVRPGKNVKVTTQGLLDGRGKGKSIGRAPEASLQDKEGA

Chain of C-C chemokine receptor type 5 (P51681 whole entry): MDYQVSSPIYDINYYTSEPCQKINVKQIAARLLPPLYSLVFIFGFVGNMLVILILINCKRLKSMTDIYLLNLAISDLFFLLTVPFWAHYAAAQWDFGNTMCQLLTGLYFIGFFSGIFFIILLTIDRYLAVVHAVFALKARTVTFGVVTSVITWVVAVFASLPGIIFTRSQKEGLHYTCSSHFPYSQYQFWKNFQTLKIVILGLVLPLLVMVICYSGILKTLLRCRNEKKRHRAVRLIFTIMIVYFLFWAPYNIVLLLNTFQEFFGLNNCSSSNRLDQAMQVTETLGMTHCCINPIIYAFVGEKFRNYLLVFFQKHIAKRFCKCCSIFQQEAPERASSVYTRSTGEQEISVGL

CC#C[C@]1(O)CC[C@H]2[C@@H]3CCC4=CC(=O)CCC4=C3[C@@H](c3ccc(N(C)C)cc3)C[C@@]21C [MIFEPRISTONE]
Not Active: IC50 [1] | IC50 [2] | Ki [2] | IC50 [3] | IC50 [4] | IC50 [5]

Cc1cnc(NC(=O)C2=C(O)c3ccccc3S(=O)(=O)N2C)s1 [MELOXICAM]
Not Active: IC50 [1] | IC50 [2] | Ki [2] | IC50 [3] | IC50 [4] | IC50 [5]

O=[As][O-].[Na+] [SODIUM ARSENITE]
Not Active: IC50 [1] | IC50 [2] | Ki [2] | IC50 [3] | IC50 [4] | IC50 [5]

Cc1cccc(C)c1NC(=O)C(C)N (configuration not stated) [TOCAINIDE]
Not Active: IC50 [1] | IC50 [2] | Ki [2] | IC50 [3] | IC50 [4] | IC50 [5]

COC(=O)Nc1nc2ccc(C(=O)c3ccccc3)cc2[nH]1 [MEBENDAZOLE]
Not Active: IC50 [1] | IC50 [2] | Ki [2] | IC50 [3] | IC50 [4] | IC50 [5]

CCOC(=O)C1=C(C)NC(C)=C(C(=O)OCC)C1c1ccccc1/C=C/C(=O)OC(C)(C)C [LACIDIPINE]
Not Active: IC50 [1] | IC50 [2] | Ki [2] | IC50 [3] | IC50 [4] | IC50 [5]

CC[C@H](C)[C@@H](CO[C@@H](Cc1ccccc1)C(=O)N[C@@H](CCS(C)(=O)=O)C(=O)OC(C)C)NC[C@@H](N)CS
Not Active: IC50 [1] | IC50 [2] | Ki [2] | IC50 [3] | IC50 [4] | IC50 [5]

O=C(c1ccccc1)c1ccc2n1CCC2C(=O)O (configuration not stated) [KETOROLAC]
Not Active: IC50 [1] | IC50 [2] | Ki [2] | IC50 [3] | IC50 [4] | IC50 [5]

O=C(O)c1cc(/N=N/c2ccc(S(=O)(=O)Nc3ccccn3)cc2)ccc1O [SULFASALAZINE]
Not Active: IC50 [1] | IC50 [2] | Ki [2] | IC50 [3] | IC50 [4] | IC50 [5]

CC1(C)[C@H](C(=O)O)N2C(=O)C[C@H]2S1(=O)=O [SULBACTAM]
Not Active: IC50 [1] | IC50 [2] | Ki [2] | IC50 [3] | IC50 [4] | IC50 [5]

C1CCN2C[C@@H]3C[C@@H](CN4CCCC[C@@H]34)[C@H]2C1 [SPARTEINE]
Not Active: IC50 [1] | IC50 [2] | Ki [2] | IC50 [3] | IC50 [4] | IC50 [5]

LEAD(IV) ACETATE
Not Active: IC50 [1] | Ki [1] | IC50 [2] | Ki [2] | IC50 [3] | Ki [3] | IC50 [4] | Ki [4] | IC50 [5] | Ki [5]

CC(O)C(=O)O (configuration not stated) [LACTIC ACID]
Not Active: IC50 [1] | IC50 [2] | Ki [2] | IC50 [3] | IC50 [4] | IC50 [5]
